Measurements taken from US11078216B2, “Bisaryl amides as NRF2 activators” (GLAXOSMITHKLINE INTELLECTUAL PROPERTY DEVELOPMENT LIMITED, priority 2016, dated 2021).

What follows are compounds tested on NRF2 (NQO1 activity as marker for NRF2 activation), BEAS-2B cells (assay: BEAS-2B NQO1 MTT Assay). Details: Homo sapiens, EC50 of NQO1 specific activity induction, 48 hours incubation, read-out: EC50.
Format: cell-based
Method in brief: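 BEAS-2B cells were exposed to compound for 48 h at 37° C, 5% CO2, then lysed. NQO1 activity was measured kinetically by MTT reduction at 570 nm over 30 minutes; EC50 came from 3-parameter fit of Delta OD/min versus log concentration.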
Work on `CC[C@@H]1CN(Cc2cc([C@@H](c3ccc4c(nnn4C)c3C)C(C)(C)C(=O)NC3CCS(=O)(=O)C3)ccc2C)Cc2cnccc2O1` (stereo partly drawn) [Example 101, (3S)-3-(1,4-Dimethyl-1H-benzo[d][1,2,3]triazol-5-yl)-N-(1,1-dioxidotetrahydrothio-phen-3-yl)-3-(3-(((R)-2-ethyl-2,3-dihydropyrido[3,4-f][1,4]oxazepin-4(5H)-yl)methyl)-4-methylphenyl)-2,2-dimethylpropanamide] yielded an EC50 of 10 to 100 nM.
In the case of `CC[C@@H]1CN(Cc2cc([C@@H](c3ccc4c(nnn4CC)c3C)C(C)(C)C(=O)NCCNC)ccc2C)S(=O)(=O)c2cccnc2O1` [Example 102, (S)-3-(3-(((R)-4-Ethyl-1,1-dioxido-3,4-dihydro-2H-pyrido[2,3-b][1,4,5]oxathiazepin-2-yl)methyl)-4-methylphenyl)-3-(1-ethyl-4-methyl-1H-benzo[d][1,2,3]triazol-5-yl)-2,2-dimethyl-N-(2-(methylamino)ethyl) propanamide], the EC50 is reported as 10 to 100 nM.
For `CC[C@H]1Cc2ncccc2S(=O)(=O)N(Cc2cc([C@H](CC(=O)Nc3cccnc3)c3ccc4c(nnn4CC)c3C)ccc2C)C1` [Example 103, (S)-3-(3-(((S)-4-Ethyl-1,1-dioxido-4,5-dihydropyrido[2,3-f][1,2]thiazepin-2(3H)-yl)methyl)-4-methylphenyl)-3-(1-ethyl-4-methyl-1H-benzo[d][1,2,3]triazol-5-yl)-N-(pyridin-3-yl)propanamide], the EC50 was 10 to 100 nM.
`CC[C@@H]1CN(Cc2cc([C@@H](c3ccc4c(nnn4CC)c3C)C(C)(C)C(=O)NCc3ncc[nH]3)ccc2C)S(=O)(=O)c2cccnc2O1` [Example 104, (S)-N-((1H-Imidazol-2-yl)methyl)-3-(3-(((R)-4-ethyl-1,1-dioxido-3,4-dihydro-2H-pyrido[2,3-b][1,4,5]oxathiazepin-2-yl)methyl)-4-methylphenyl)-3-(1-ethyl-4-methyl-1H-benzo[d][1,2,3]triazol-5-yl)-2,2-dimethylpropanamide] showed an EC50 of 100 to 1000 nM.
For `CC[C@H]1Cc2ncccc2S(=O)(=O)N(Cc2cc([C@H](CC(=O)Nc3cncnc3)c3ccc4c(nnn4CC)c3C)ccc2C)C1` [Example 105, (S)-3-(3-(((S)-4-Ethyl-1,1-dioxido-4,5-dihydropyrido[2,3-f][1,2]thiazepin-2(3H)-yl)methyl)-4-methylphenyl)-3-(1-ethyl-4-methyl-1H-benzo[d][1,2,3]triazol-5-yl)-N-(pyrimidin-5-yl)propanamide], the EC50 was 10 to 100 nM.
`CC[C@@H]1CN(Cc2cc([C@@H](c3ccc4c(nnn4CC)c3C)C(C)(C)C(=O)NC3CCS(=O)(=O)C3)ccc2C)S(=O)(=O)c2cccnc2O1` (stereo partly drawn) [Example 106, (3S)-N-(1,1-Dioxidotetrahydrothio-phen-3-yl)-3-(3-(((R)-4-ethyl-1,1-dioxido-3,4-dihydro-2H-pyrido[2,3-b][1,4,5]oxathiazepin-2-yl)methyl)-4-methylphenyl)-3-(1-ethyl-4-methyl-1H-benzo[d][1,2,3]triazol-5-yl)-2,2-dimethylpropanamide] showed an EC50 of 100 to 1000 nM.
In the case of `CC[C@@H]1CN(Cc2cc([C@H](CC(=O)Nc3ccnnc3)c3ccc4c(nnn4CC)c3C)ccc2C)S(=O)(=O)c2cccnc2O1` [Example 107, (S)-3-(3-(((R)-4-Ethyl-1,1-dioxido-3,4-dihydro-2H-pyrido[2,3-b][1,4,5]oxathiazepin-2-yl)methyl)-4-methylphenyl)-3-(1-ethyl-4-methyl-1H-benzo[d][1,2,3]triazol-5-yl)-N-(pyridazin-4-yl)propanamide], the EC50 is reported as 100 to 1000 nM.
In the case of `CC[C@@H]1CN(Cc2cc([C@H](CC(=O)Nc3ccncn3)c3ccc4c(nnn4CC)c3C)ccc2C)S(=O)(=O)c2cccnc2O1` [Example 108, (S)-3-(3-(((R)-4-Ethyl-1,1-dioxido-3,4-dihydro-2H-pyrido[2,3-b][1,4,5]oxathiazepin-2-yl)methyl)-4-methylphenyl)-3-(1-ethyl-4-methyl-1H-benzo[d][1,2,3]triazol-5-yl)-N-(pyrimidin-4-yl)propanamide], the EC50 is reported as 100 to 1000 nM.
`CC[C@@H]1CN(Cc2cc([C@H](CC(=O)Nc3cncnc3)c3ccc4c(nnn4CC)c3C)ccc2C)S(=O)(=O)c2cccnc2O1` [Example 109, (S)-3-(3-(((R)-4-Ethyl-1,1-dioxido-3,4-dihydro-2H-pyrido[2,3-b][1,4,5]oxathiazepin-2-yl)methyl)-4-methylphenyl)-3-(1-ethyl-4-methyl-1H-benzo[d][1,2,3]triazol-5-yl)-N-(pyrimidin-5-yl)propanamide] showed an EC50 of 10 to 100 nM.
`CC[C@@H]1CN(Cc2cc([C@H](CC(=O)Nc3cccnc3)c3ccc4c(nnn4CC)c3C)ccc2Cl)S(=O)(=O)c2cccnc2O1` [Example 110, (S)-3-(4-Chloro-3-(((R)-4-ethyl-1,1-dioxido-3,4-dihydro-2H-pyrido[2,3-b][1,4,5]oxathiazepin-2-yl)methyl)phenyl)-3-(1-ethyl-4-methyl-1H-benzo[d][1,2,3]triazol-5-yl)-N-(pyridin-3-yl)propanamide] gave an EC50 of 10 to 100 nM.
With `CC[C@@H]1CN(Cc2cc([C@@H](c3ccc4c(nnn4C)c3C)C(C)(C)C(=O)Nc3ccncc3)ccc2C)Cc2cnccc2O1` [Example 112, (S)-3-(1,4-Dimethyl-1H-benzo[d][1,2,3]triazol-5-yl)-3-(3-(((R)-2-ethyl-2,3-dihydropyrido[3,4-f][1,4]oxazepin-4(5H)-yl)methyl)-4-methylphenyl)-2,2-dimethyl-N-(pyridin-4-yl)propanamide] the EC50 was 100 to 1000 nM.
Compound `CC[C@@H]1CN(Cc2cc([C@@H](c3ccc4c(nnn4CC)c3C)C(C)(C)C(=O)N[C@H]3CCOC3)ccc2C)S(=O)(=O)c2cccnc2O1` [Example 113, (S)-3-(3-(((R)-4-Ethyl-1,1-dioxido-3,4-dihydro-2H-pyrido[2,3-b][1,4,5]oxathiazepin-2-yl)methyl)-4-methylphenyl)-3-(1-ethyl-4-methyl-1H-benzo[d][1,2,3]triazol-5-yl)-2,2-dimethyl-N-((S)-tetrahydrofuran-3-yl)propanamide] has an EC50 of 10 to 100 nM.
`CC[C@@H]1CN(Cc2cc([C@@H](c3ccc4c(nnn4CC)c3C)C(C)(C)C(=O)N[C@@H]3CCOC3)ccc2C)S(=O)(=O)c2cccnc2O1` [Example 114, (S)-3-(3-(((R)-4-Ethyl-1,1-dioxido-3,4-dihydro-2H-pyrido[2,3-b][1,4,5]oxathiazepin-2-yl)methyl)-4-methylphenyl)-3-(1-ethyl-4-methyl-1H-benzo[d][1,2,3]triazol-5-yl)-2,2-dimethyl-N-((R)-tetrahydrofuran-3-yl)propanamide] was tested, and the EC50 was 10 to 100 nM.
Compound `CC[C@@H]1CN(Cc2cc([C@@H](c3ccc4c(nnn4CC)c3C)C(C)(C)C(=O)Nc3cnc(SC)nc3)ccc2C)S(=O)(=O)c2cccnc2O1` [Example 115, (S)-3-(3-(((R)-4-Ethyl-1,1-dioxido-3,4-dihydro-2H-pyrido[2,3-b][1,4,5]oxathiazepin-2-yl)methyl)-4-methylphenyl)-3-(1-ethyl-4-methyl-1H-benzo[d][1,2,3]triazol-5-yl)-2,2-dimethyl-N-(2-(methylthio)pyrimidin-5-yl)propanamide] has an EC50 of 1 to 10 nM.
`CC[C@@H]1CN(Cc2cc([C@H](c3ccc4c(nnn4CC)c3C)C(C)(C)C(=O)Nc3cccnc3)ccc2C)S(=O)(=O)c2cccnc2O1` [Example 116, (R)-3-(3-(((R)-4-Ethyl-1,1-dioxido-3,4-dihydro-2H-pyrido[2,3-b][1,4,5]oxathiazepin-2-yl)methyl)-4-methylphenyl)-3-(1-ethyl-4-methyl-1H-benzo[d][1,2,3]triazol-5-yl)-2,2-dimethyl-N-(pyridin-3-yl)propanamide] gave an EC50 of 10 to 100 nM.
`CC[C@@H]1CN(Cc2cc([C@@H](c3ccc4c(nnn4CC)c3C)C(C)(C)C(=O)Nc3cncnc3)ccc2C)S(=O)(=O)c2cccnc2O1` [Example 117, (S)-3-(3-(((R)-4-Ethyl-1,1-dioxido-3,4-dihydro-2H-pyrido[2,3-b][1,4,5]oxathiazepin-2-yl)methyl)-4-methylphenyl)-3-(1-ethyl-4-methyl-1H-benzo[d][1,2,3]triazol-5-yl)-2,2-dimethyl-N-(pyrimidin-5-yl)propanamide] showed an EC50 of 1 to 10 nM.
Work on `CC[C@@H]1CN(Cc2cc([C@H](CC(=O)Nc3cnccn3)c3ccc4c(nnn4CC)c3C)ccc2C)S(=O)(=O)c2cccnc2O1` [Example 118, (S)-3-(3-(((R)-4-Ethyl-1,1-dioxido-3,4-dihydro-2H-pyrido[2,3-b][1,4,5]oxathiazepin-2-yl)methyl)-4-methylphenyl)-3-(1-ethyl-4-methyl-1H-benzo[d][1,2,3]triazol-5-yl)-N-(pyrazin-2-yl)propanamide] yielded an EC50 of 10 to 100 nM.
`CC[C@H]1Cc2ncccc2S(=O)(=O)N(Cc2cc([C@@H](c3ccc4c(nnn4CC)c3C)C(C)(C)C(=O)Nc3cccnc3)ccc2C)C1` [Example 119, (S)-3-(3-(((S)-4-Ethyl-1,1-dioxido-4,5-dihydropyrido[2,3-f][1,2]thiazepin-2(3H)-yl)methyl)-4-methylphenyl)-3-(1-ethyl-4-methyl-1H-benzo[d][1,2,3]triazol-5-yl)-2,2-dimethyl-N-(pyridin-3-yl)propanamide] showed an EC50 of 1 to 10 nM.
Compound `CC[C@@H]1CN(Cc2cc([C@@H](c3ccc4c(nnn4CC)c3C)C(C)(C)C(=O)Nc3cccnc3)ccc2C)S(=O)(=O)c2cccnc2O1` [Example 120, (S)-3-(3-(((R)-4-Ethyl-1,1-dioxido-3,4-dihydro-2H-pyrido[2,3-b][1,4,5]oxathiazepin-2-yl)methyl)-4-methylphenyl)-3-(1-ethyl-4-methyl-1H-benzo[d][1,2,3]triazol-5-yl)-2,2-dimethyl-N-(pyridin-3-yl)propanamide] has an EC50 of 1 to 10 nM.
`CC[C@@H]1CN(Cc2cc([C@H](CC(=O)Nc3ncccn3)c3ccc4c(nnn4CC)c3C)ccc2C)S(=O)(=O)c2cccnc2O1` [Example 121, (S)-3-(3-(((R)-4-Ethyl-1,1-dioxido-3,4-dihydro-2H-pyrido[2,3-b][1,4,5]oxathiazepin-2-yl)methyl)-4-methylphenyl)-3-(1-ethyl-4-methyl-1H-benzo[d][1,2,3]triazol-5-yl)-N-(pyrimidin-2-yl)propanamide] showed an EC50 of 100 to 1000 nM.
